Results from PubChem BioAssay AID330 (DTP/NCI, 2004).
“And” between values parts separate entries of the source, which are not always exact repeats. Equal values may be shown once. Inconclusive results and toxic doses are left out.

System: P388 leukemia ip, CD2F1 mice, survival T/C
Assay: NCI In Vivo Anticancer Drug Screen. Data for tumor model P388 Leukemia (intraperitoneal) in CD2F1 (CDF1) mice
Settings: endpoint: median survival time, higher = longer survival
Procedure, shortened: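 Mice carrying the transplanted tumor received test compound or vehicle. Survival was recorded in each group, and the value is the treated-group measurement divided by that of the vehicle-treated control group.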

[1] = dose: 25.0 mg/kg/injection, schedule: Q01DX009 (ip), vehicle: saline with Tween-80
[2] = dose: 50.0 mg/kg/injection, schedule: Q01DX009 (ip), vehicle: saline with Tween-80
[3] = dose: 100.0 mg/kg/injection, schedule: Q01DX009 (ip), vehicle: saline with Tween-80
[4] = dose: 50.0 mg/kg/injection, schedule: Q01DX005 (ip), vehicle: Klucel (hydroxypropylcellulose) (HPC)
[5] = dose: 100.0 mg/kg/injection, schedule: Q01DX005 (ip), vehicle: Klucel (hydroxypropylcellulose) (HPC)
[6] = dose: 12.5 mg/kg/injection, schedule: Q01DX009 (ip), vehicle: Klucel (hydroxypropylcellulose) (HPC)
[7] = dose: 25.0 mg/kg/injection, schedule: Q01DX009 (ip), vehicle: Klucel (hydroxypropylcellulose) (HPC)
[8] = dose: 50.0 mg/kg/injection, schedule: Q01DX009 (ip), vehicle: saline

Cc1[nH]c(=O)[nH]c(=O)c1/C=C/C(=O)NC(CO)CS(C)=O (configuration not stated)
T/C (dose: 0.07 mg/kg/injection, schedule: Q01DX009 (ip), vehicle: water): 108 % of control | T/C (dose: 0.15 mg/kg/injection, schedule: Q01DX009 (ip), vehicle: water): 106 % of control and 100 % of control | T/C (dose: 0.3 mg/kg/injection, schedule: Q01DX009 (ip), vehicle: water): 92 % of control and 110 % of control | T/C (dose: 0.6 mg/kg/injection, schedule: Q01DX009 (ip), vehicle: water): 98 % of control and 110 % of control | T/C (dose: 1.2 mg/kg/injection, schedule: Q01DX009 (ip), vehicle: water): 112 % of control | T/C (dose: 2.0 mg/kg/injection, schedule: Q01DX009 (ip), vehicle: water): 118 % of control | T/C (dose: 4.0 mg/kg/injection, schedule: Q01DX009 (ip), vehicle: water): 120 % of control | T/C (dose: 16.0 mg/kg/injection, schedule: Q01DX009 (ip), vehicle: water): 111 % of control | T/C (dose: 40.0 mg/kg/injection, schedule: Q01DX009 (ip), vehicle: water): 102 % of control | T/C (dose: 64.0 mg/kg/injection, schedule: Q01DX009 (ip), vehicle: water): 116 % of control and 123 % of control | T/C (dose: 128.0 mg/kg/injection, schedule: Q01DX009 (ip), vehicle: water): 124 % of control

C=CC1(C)CCC(C(C)C(=O)/C=C/C(C)(C)O)O1 (configuration not stated)
T/C (dose: 22.0 mg/kg/injection, schedule: Q01DX005 (ip), vehicle: Klucel (hydroxypropylcellulose) (HPC)): 105 % of control | T/C (dose: 44.0 mg/kg/injection, schedule: Q01DX005 (ip), vehicle: Klucel (hydroxypropylcellulose) (HPC)): 113 % of control | T/C (dose: 88.0 mg/kg/injection, schedule: Q01DX005 (ip), vehicle: Klucel (hydroxypropylcellulose) (HPC)): 114 % of control | T/C (dose: 176.0 mg/kg/injection, schedule: Q01DX005 (ip), vehicle: Klucel (hydroxypropylcellulose) (HPC)): 118 % of control

CN1CC(CO)=CC2c3cccc4[nH]cc(c34)CC21 (configuration not stated)
T/C [1]: 111 % of control | T/C [2]: 104 % of control | T/C [3]: 104 % of control

ClCc1ccc(Cl)c(Cl)c1Cl
T/C [1]: 100 % of control | T/C (dose: 25.0 mg/kg/injection, schedule: Q04DX003 (ip), vehicle: saline with Tween-80): 100 % of control | T/C [2]: 104 % of control | T/C (dose: 50.0 mg/kg/injection, schedule: Q04DX003 (ip), vehicle: saline with Tween-80): 100 % of control | T/C [3]: 109 % of control | T/C (dose: 100.0 mg/kg/injection, schedule: Q04DX003 (ip), vehicle: saline with Tween-80): 100 % of control

CCCNC(=O)CCC(NS(=O)(=O)c1ccc(C)cc1)C(=O)O (configuration not stated)
T/C [4]: 100 % of control | T/C [5]: 100 % of control | T/C (dose: 200.0 mg/kg/injection, schedule: Q01DX005 (ip), vehicle: Klucel (hydroxypropylcellulose) (HPC)): 98 % of control

CNCCC1CCCCC1
T/C [4]: 110 % of control

COc1ccc(-c2cn(-c3ccc(OC)cc3)c3ncnc(N)c23)cc1
T/C (dose: 60.0 mg/kg/injection, schedule: Q01DX005 (ip), vehicle: saline with Tween-80): 102 % of control | T/C (dose: 120.0 mg/kg/injection, schedule: Q01DX005 (ip), vehicle: saline with Tween-80): 100 % of control | T/C (dose: 240.0 mg/kg/injection, schedule: Q01DX005 (ip), vehicle: saline with Tween-80): 96 % of control

CC(C)(C)C1=CC(=O)C(C#N)=C(C#N)C1=O
T/C (dose: 6.25 mg/kg/injection, schedule: Q01DX009 (ip), vehicle: saline with Tween-80): 95 % of control | T/C (dose: 12.5 mg/kg/injection, schedule: Q01DX009 (ip), vehicle: saline with Tween-80): 109 % of control | T/C [1]: 100 % of control

CCC[n+]1noc(N)n1
T/C (dose: 3.13 mg/kg/injection, schedule: Q01DX009 (ip), vehicle: water): 97 % of control | T/C (dose: 6.25 mg/kg/injection, schedule: Q01DX009 (ip), vehicle: water): 99 % of control | T/C (dose: 12.5 mg/kg/injection, schedule: Q01DX009 (ip), vehicle: water): 90 % of control | T/C (dose: 25.0 mg/kg/injection, schedule: Q01DX009 (ip), vehicle: water): 97 % of control | T/C (dose: 50.0 mg/kg/injection, schedule: Q01DX009 (ip), vehicle: water): 106 % of control | T/C (dose: 100.0 mg/kg/injection, schedule: Q01DX009 (ip), vehicle: water): 106 % of control

[Br][Hg][CH]1CCC2CCCC1O2 (configuration not stated)
T/C [6]: 89 % of control | T/C [7]: 90 % of control

Clc1ccc(/C=N/Nc2nnc3c(n2)[nH]c2ccccc23)cc1
T/C (dose: 100.0 mg/kg/injection, schedule: Q04DX002 (ip), vehicle: saline with Tween-80): 99 % of control | T/C (dose: 200.0 mg/kg/injection, schedule: Q04DX002 (ip), vehicle: saline with Tween-80): 100 % of control | T/C (dose: 400.0 mg/kg/injection, schedule: Q04DX002 (ip), vehicle: saline with Tween-80): 90 % of control

C=C(C)C(=NC1CCCCC1)NC(C)(C)C
T/C (dose: 25.0 mg/kg/injection, schedule: Q01DX005 (ip), vehicle: Klucel (hydroxypropylcellulose) (HPC)): 99 % of control | T/C [4]: 100 % of control | T/C [5]: 99 % of control and 102 % of control

Cc1ccc2c(=O)[nH]cnc2c1
T/C [6]: 100 % of control | T/C [7]: 98 % of control and 100 % of control | T/C (dose: 50.0 mg/kg/injection, schedule: Q01DX009 (ip), vehicle: Klucel (hydroxypropylcellulose) (HPC)): 99 % of control and 103 % of control | T/C (dose: 100.0 mg/kg/injection, schedule: Q01DX009 (ip), vehicle: Klucel (hydroxypropylcellulose) (HPC)): 101 % of control and 110 % of control and 97 % of control | T/C (dose: 200.0 mg/kg/injection, schedule: Q01DX009 (ip), vehicle: Klucel (hydroxypropylcellulose) (HPC)): 113 % of control

CCn1c2ccccc2c2cc(NC(=S)NC(=O)c3ccccc3)ccc21
T/C (dose: 50.0 mg/kg/injection, schedule: Q01DX005 (ip), vehicle: saline with Tween-80): 87 % of control | T/C (dose: 100.0 mg/kg/injection, schedule: Q01DX005 (ip), vehicle: saline with Tween-80): 86 % of control | T/C (dose: 200.0 mg/kg/injection, schedule: Q01DX005 (ip), vehicle: saline with Tween-80): 87 % of control

NCCCCCCN1CCN(c2cccc(Cl)c2)CC1
T/C [8]: 103 % of control and 97 % of control | T/C (dose: 100.0 mg/kg/injection, schedule: Q01DX009 (ip), vehicle: saline): 114 % of control and 98 % of control | T/C (dose: 200.0 mg/kg/injection, schedule: Q01DX009 (ip), vehicle: saline): 123 % of control

COc1ccc(NC(=O)C(Cl)Cl)ccc1=O
T/C [2]: 91 % of control

O=C1C=C(N2CC2)C(=O)C(N2CC2)=C1N1CC1
T/C (dose: 0.02 mg/kg/injection, schedule: Q01DX005 (ip), vehicle: saline): 155 % of control | T/C (dose: 0.04 mg/kg/injection, schedule: Q01DX005 (ip), vehicle: saline): 157 % of control and 158 % of control and 175 % of control | T/C (dose: 0.08 mg/kg/injection, schedule: Q01DX005 (ip), vehicle: saline): 191 % of control and 194 % of control and 214 % of control | T/C (dose: 0.16 mg/kg/injection, schedule: Q01DX005 (ip), vehicle: saline): 215 % of control and 226 % of control and 287 % of control | T/C (dose: 0.32 mg/kg/injection, schedule: Q01DX005 (ip), vehicle: saline): 111 % of control

C1CCC2(CC1)C[Se]C2
T/C (dose: 7.5 mg/kg/injection, schedule: Q01DX009 (ip), vehicle: saline with Tween-80): 108 % of control | T/C (dose: 15.0 mg/kg/injection, schedule: Q01DX009 (ip), vehicle: saline with Tween-80): 113 % of control | T/C (dose: 30.0 mg/kg/injection, schedule: Q01DX009 (ip), vehicle: saline with Tween-80): 105 % of control

COc1ccc(C2CC3CCC(C2O)N3C)cc1 (configuration not stated)
T/C [4]: 103 % of control | T/C [5]: 96 % of control

C[C@]12CCC(=O)C[C@@H]1CC[C@@H]1[C@@H]2CC[C@]2(C)[C@@H](OC(=O)N(CCCl)N=O)CC[C@@H]12
T/C (dose: 25.0 mg/kg/injection, schedule: Q01DX005 (ip), vehicle: other): 105 % of control | T/C (dose: 25.0 mg/kg/injection, schedule: Q01DX009 (ip), vehicle: other): 120 % of control | T/C (dose: 25.0 mg/kg/injection, schedule: Q01DX009 (ip), vehicle: saline): 106 % of control | T/C (dose: 31.2 mg/kg/injection, schedule: Q04DX003 (ip), vehicle: saline): 116 % of control | T/C (dose: 50.0 mg/kg/injection, schedule: Q01DX005 (ip), vehicle: other): 105 % of control | T/C [8]: 121 % of control | T/C (dose: 62.5 mg/kg/injection, schedule: Q04DX003 (ip), vehicle: saline): 110 % of control | T/C (dose: 100.0 mg/kg/injection, schedule: Q01DX005 (ip), vehicle: other): 112 % of control | T/C (dose: 100.0 mg/kg/injection, schedule: Q01DX009 (ip), vehicle: other): 100 % of control

COc1cc(/C=C/c2ccccn2)oc(=O)c1
T/C (dose: 100.0 mg/kg/injection, schedule: Q04DX002 (ip), vehicle: Klucel (hydroxypropylcellulose) (HPC)): 102 % of control | T/C (dose: 200.0 mg/kg/injection, schedule: Q04DX002 (ip), vehicle: Klucel (hydroxypropylcellulose) (HPC)): 100 % of control | T/C (dose: 400.0 mg/kg/injection, schedule: Q04DX002 (ip), vehicle: Klucel (hydroxypropylcellulose) (HPC)): 100 % of control
